In patent publication US20180021315A1, “METHODS OF TREATING HEARING DISORDERS” (Wayne State University, priority 2016, published 2018):
“Also recorded” adds a separate entry of the source.

Columns and labels:
[1] = system: glial fibrillary acidic protein (GFAP); assay: GFAP immunostaining densitometry of AC astrocytes after blast; type: in vivo, rat; details: immunostained AC astrocytes, FIG. 24B
Excerpt: FIGS. 24A and 24B depict densitometry measurements of glial fibrillary acidic protein (GFAP) and TNF-α expression, respectively, as observed by fluorescence microscopy of immunohistochemistry-stained AC astrocytes. […] The decrease in astrocyte TNF-α expression was relatively smaller than the decrease in microglial TNF-α expression (compare […] with FIG. 23B). […] Error bars in FIGS. 24A-24B depict standard deviation.

[2] = system: ionized calcium-binding adapter molecule 1 (Iba-1); assay: Iba-1 immunostaining densitometry of microglia after blast; type: in vivo, rat; details: immunostained microglia, FIG. 23A
Excerpt: FIGS. 23A and 23B depict densitometry measurements of ionized calcium-binding adapter molecule 1 (Iba-1) and TNF-α expression, respectively, as observed by fluorescence microscopy of immunohistochemistry-stained microglia. […] Error bars in FIGS. 23A-23B depict standard deviation.

Pyramidal neurons = assay: Patch clamp mIPSC and mEPSC in brain slices after noise exposure; type: in vivo, mouse
Protocol: Three groups of C75BL6 mice were used. Two were exposed to 123-dB noise in the left ear for two hours. Animals in one of the two exposed group were administered 3,6′-dithiothalidomide. The drug was administered daily for five days. The remaining third group underwent the same procedure but without noise exposure or drug administration. On day 10 post-noise exposure, animals were euthanized and brain slices were prepared. Pyramidal neurons in the brain slices were recorded as described above. Miniature inhibitory and excitatory synaptic transmissions (mIPSC and mEPSC) were examined.

C75BL6 mice = assay: Noise-induced tinnitus, gap detection, 3,6′-dithiothalidomide; type: in vivo, mouse
Protocol: Tinnitus was assessed using the gap detection paradigm.
A group of C75BL6 mice underwent 4 days of gap detection testing. On the fifth day, the mice were exposed to 123-dB noise in their left ears for two hours, which was followed immediately by the administration of 3,6′-dithiothalidomide at a dose of 28 mg/kg. The drug was administered daily for five days. On day 10 post noise exposure, gap detection tests were resumed to test the animals' performance. Impaired gap detection compared to prenoise exposure performance is behavioral evidence of tinnitus.

TNF-α = assay: Blast-induced TNF-α protein levels in auditory brain regions (ELISA and Western blot); type: in vivo, rat
Protocol: The therapeutic drug used was 3,6′-dithiothalidomide, which was synthesized according to a published procedure to greater than 99.8% chemical purity (Baratz et al., 2011; W. Luo et al., 2008). The drug was freshly prepared prior to each study. 3,6′-dithiothalidomide was prepared as a suspension in 1% carboxymethyl cellulose to provide a final concentration of 28 or 56 mg/kg (0.1 mL/10 g and 0.1 mL/100 g body weight injection in mice and rats, respectively), and was administered intraperitoneally (i.p.). These concentrations of 3,6′-dithiothalidomide are equimolar to 25 and 50 mg/kg of thalidomide.
(§1) Each of the rats was subjected to blast exposure in the left ear using a shock tube (ORA Inc.) located at the Wayne State University Bioengineering Center. The blast exposure of each rat was performed under anesthesia with a mixture of air (1 liter/min) and isoflurane (5% v/v). The rat was placed on supportive netting with a metal surround and secured on a pole with its head facing the oncoming shockwave. During blast exposure, the rat's right ear was occluded with a silicone earplug (Mack's; McKeon Products, Warren, Mich.), followed by application of mineral oil to seal any remaining openings. The average energy under 10 kHz measured at 22 psi was equivalent to 150 kPa or 197.5 dB SPL. After blast exposure, each rat was transferred to a polycarbonate cage.
Two exposed groups received either 56 mg/kg 3,6′-dithiothalidomide i.p. or vehicle for two days starting on the same day of the blast exposure. Another two exposed groups received 56 mg/kg 3,6′-dithiothalidomide i.p. or vehicle treatment for five days starting on the day of the blast exposure. Two more exposed groups received 56 mg/kg 3,6′-dithiothalidomide i.p. or vehicle treatment for five days starting on the fifth day after blast exposure. On the last day of the drug/vehicle injection, brain samples were collected. ELISA and Western blot was performed to determine the effects of blast and 3,6′-dithiothalidomide treatment on TNF-α protein levels.

blast-exposed rats = assay: Blast-induced tinnitus behavioral testing (gap detection and PPI, startle reflex), 3,6′-dithiothalidomide; type: in vivo, rat
Protocol: as §1
Thirty two rats from Example 10 were used. Behavioral tinnitus testing, including gap detection and PPI testing, was conducted with Hamilton-Kinder startle-reflex hardware and software. During behavioral testing, each rat was placed in an individual noise-attenuation chamber to perform gap and PPI testing. In the gap procedure, each rat was presented with a constant 60-dB SPL background noise composed of 2,000 Hz bandpass signals at 6-8, 10-12, 14-16, 18-20, or 26-28 kHz or broadband noise (BBN; 2-30 kHz). A 115 dB SPL, 50 ms noise-burst was used as the startle stimulus to induce the acoustic startle reflex. The background noise session contained two conditions, one condition was the startle only condition in which rat was presented with the startle stimulus alone, and the other condition was the gap condition in which a rat was presented with a startle stimulus preceded by a silent gap embedded within the background noise. Silent gaps were 40 ms in duration with a lead interval of 90 ms to the startle stimulus. The startle reflex of rats was measured in response to 3 conditions: 1) background noise alone, 2) startle only, and 3) gap. Detection of the gap results in a reduction in the startle amplitude. Development of tinnitus in a specific frequency band impairs gap detection in the corresponding gap-carrier band, and thus, the startle amplitude reaches amplitudes elicited without the gap. For the PPI procedure, the parameters were almost the same as with gap except that no background noise or silent gap was used. The startle amplitude of rats in response to the two conditions was measured: the startle-only condition and a prepulse followed by the startle stimulus. In the latter condition, a 60-dB SPL, 40-msec prepulse was introduced 90 msec before the startle stimulus. The acoustic startle reflex of the rat decreased in response to the prepulse except when the rat had hearing loss at a frequency similar to the prepulse.
Rats were exposed or sham-exposed to a blast shockwave. To determine whether TNF-α is involved in blast-induced tinnitus, the rats were injected once daily for 5 days with 3,6′-dithiothalidomide starting 7 days after blast exposure. Behavioral testing and ABR recordings started 1 day after drug injection and lasted for three weeks.

## O=C1NC(=S)CCC1N1C(=O)c2ccccc2C1=S (stereo not shown) [3,6′-dithiothalidomide]
[1]
  blast-induced astrocyte GFAP expression: is blocked
[2]
  blast-induced microglial activation (Iba-I staining): not blocked
Pyramidal neurons; mice, 123-dB noise 2 h, 28 mg/kg daily for five days, day 10, FIG. 26A, 28 mg/kg
  mIPSC frequency (noise-induced reduction): completely reversed; also recorded: rescues the reduction in mIPSC frequency
Pyramidal neurons; mice, 123-dB noise 2 h, 28 mg/kg, FIG. 26B
  mIPSC amplitude (noise-induced reduction): rescues the reduction in mIPSC amplitude
Pyramidal neurons; noise-exposed treated mice relative to control mice, FIG. 26C
  mEPSC frequency: no effect
Pyramidal neurons; noise-exposed treated mice relative to control mice, FIG. 26D
  mEPSC amplitude: no significant effect
C75BL6 mice; 28 mg/kg, FIG. 25
  noise-induced tinnitus (startle-response ratio): prevents noise-induced tinnitus in mice
C75BL6 mice; 123-dB noise 2 h, 28 mg/kg daily for five days, tested day 10 post exposure
  gap detection performance after noise exposure: not significantly altered
TNF-α; blast-exposed rat AC, 56 mg/kg i.p., FIG. 10
  TNF-α protein levels in AC, ELISA: reduced TNF-α protein levels
TNF-α; blast-exposed rat DCN, 56 mg/kg i.p., FIG. 11
  TNF-α protein levels in DCN, ELISA: reduced TNF-α protein levels
TNF-α; blast-exposed rat IC, 56 mg/kg i.p., FIG. 12
  TNF-α protein levels in IC, ELISA: reduced TNF-α protein levels
TNF-α; blast-exposed rat IC, FIG. 12
  statistical significance of the reduction of TNF-α protein levels in IC: did not achieve statistical significance
TNF-α; blast-exposed rats
  translational/posttranslational increase in the TNF-α protein level: cannot block such an increase
TNF-α; group treated five days starting on the day of blast (5 Days), P<0.05
  reduction in TNF-α protein levels in DCN vs corresponding vehicle group: statistical significance
TNF-α; group treated five days starting on the fifth day after blast (10 Days), P<0.05
  reduction in TNF-α protein levels in AC vs corresponding vehicle group: statistical significance
TNF-α; rat AC and DCN, vs vehicle, P<0.05
  statistical significance of the reduction of TNF-α protein levels in AC and DCN: reached statistical significance; also recorded: significant reduction
TNF-α; rat AI, DCN and IC, 56 mg/kg i.p., 2, 5 and 10 days after blast, FIGS. 10-13
  TNF-α protein levels after blast exposure: partially reduced TNF-α protein levels
blast-exposed rats; acute tinnitus rats, 56 mg/kg i.p., post drug vs post blast, FIG. 14A
  startle force of the startle-only condition, gap test: recovered significantly
blast-exposed rats; acute tinnitus rats, 56 mg/kg i.p., post drug vs post blast, FIG. 14B
  startle force of the startle-only condition, PPI test: recovered significantly
blast-exposed rats; deficit at 7 days after blast, after 5 days of treatment, FIG. 15A
  gap ratio values (gap/startle-only response): recovered significantly
blast-exposed rats; deficit at 7 days after blast, after 5 days of treatment, FIG. 15B
  PPI ratio values (PPI/startle-only response): recovered significantly
blast-exposed rats; tinnitus 7 days after blast, after 5 days of treatment, FIG. 16A
  tinnitus score: recovered significantly
